From publication PMC5073051 (European journal of medicinal chemistry, 2016)

Assays:
SAS cells = settings: read-out: cytotoxicity IC50, SAS oral cancer cells; cited from earlier work
OEC-M1 cells = settings: read-out: cytotoxicity IC50, OEC-M1 oral cancer cells; cited from earlier work
MDA-MB-231 cells = assay: HGF-induced cell migration wound-healing assay; settings: Homo sapiens, MDA-MB-231, 24 h, read-out: Antimigratory activity IC50 ± SEM, MDA-MB-231, wound-healing assay, HGF 40 ng/mL, 24 h
[1] = target: human placental glutathione S-transferase (GST); settings: read-out: inhibition of human placental GST activity IC50; cited from earlier work

Question: Which results are given for `O=C(/C=C/c1ccc(O)cc1)OCCc1ccc(O)cc1` [Compound 6, Tyrosol coumarate]?
Answer: IC50 (SAS cells): > 100 µM; IC50 (OEC-M1 cells): > 100 µM

Question: Which IC50 (MDA-MB-231 cells) does the source give for `COc1cc(/C=C/C=N/CCc2ccc(O)cc2)cc(OC)c1O` [Compound 11] here?
Answer: < 5 µM

Question: For `COc1cc(/C=C/COC(=O)/C=C/c2ccc(O)c(OC)c2)ccc1O` [Compound 40, coniferyl ferulate], which IC50 [1] is on record?
Answer: 0.3 µM

Question: With `COc1cc(/C=C/C(=O)OCCc2ccc(O)cc2)ccc1O` [Compound 5, Tyrosol ferulate] as the compound, how does the IC50 (SAS cells) read?
Answer: > 100 µM

Question: What about the IC50 (OEC-M1 cells) of the same compound?
Answer: > 100 µM
